Test system: IL-1β cytokine output from THP-1s
Assay: THP-1 AlphaLISA IL-1β cytokine assay
Format: cell-based, human
Settings: Homo sapiens, THP-1, PMA-differentiated THP-1 cells, LPS 24 hr then Nigericin 1 hour; read-out: IL-1β (IC50)
Method in brief: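 PMA-differentiated (72 h) THP-1 cells pretreated 30 min with compound, LPS-stimulated 24 h, then nigericin 1 h at 37 °C. Supernatant IL-1β and IL-6 by AlphaLISA; % inhibition normalised to ±LPS controls, IC50 from concentration-response curves.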

SMILES	IC50 [µM]
C=C(CC(=O)O[C@@H](CCCCCC)C(F)(F)F)C(=O)OCC(=O)O [Example 182, (S)-2-((2-methylene-4-oxo-4-((1,1,1-trifluorooctan-2-yl)oxy)butanoyl)oxy)acetic acid]	6.1
C=C(CC(=O)OC1CCCCCCC1)C(=O)OCc1nnn[nH]1 [Example 134, 1-((1H-tetrazol-5-yl)methyl) 4-cyclooctyl 2-methylenesuccinate]	9.8

Test system: not listed separately
Assay: Mouse pharmacokinetic study, intravenous dosing
Format: in vivo
Settings: male, C57BL/6, mouse, iv; plasma, 10 mg/kg i.v., time 0.05 h; read-out: Parent compound concentration following intravenous administration
Method in brief: (§1)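 Male C57BL/6 mice (6-8 weeks, fed ad libitum) received 10 mg/kg IV by tail vein in 10% DMSO/HP-β-CD vehicle, or 100 mg/kg by oral gavage in DMSO/HPMC/Tween 80. Facial-vein blood was taken at 9 time points (N=3 each) into K2EDTA; plasma concentrations were measured by LC-MS/MS.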

SMILES	concentration at 0.05 h [ng/mL]
C=C(CC(=O)O[C@@H](CCCCCC)C(F)(F)F)C(=O)OCC(=O)O [Example 182, (S)-2-((2-methylene-4-oxo-4-((1,1,1-trifluorooctan-2-yl)oxy)butanoyl)oxy)acetic acid]	40800
C=C(CC(=O)OC1CCCCCCC1)C(=O)OCc1nnn[nH]1 [Example 134, 1-((1H-tetrazol-5-yl)methyl) 4-cyclooctyl 2-methylenesuccinate]	31600

Same assay, conditions: male, C57BL/6, mouse, iv; plasma, 10 mg/kg i.v., time 0.133 h; read-out: Parent compound concentration following intravenous administration

SMILES	concentration at 0.133 h [ng/mL]
C=C(CC(=O)O[C@@H](CCCCCC)C(F)(F)F)C(=O)OCC(=O)O [Example 182, (S)-2-((2-methylene-4-oxo-4-((1,1,1-trifluorooctan-2-yl)oxy)butanoyl)oxy)acetic acid]	17900
C=C(CC(=O)OC1CCCCCCC1)C(=O)OCc1nnn[nH]1 [Example 134, 1-((1H-tetrazol-5-yl)methyl) 4-cyclooctyl 2-methylenesuccinate]	7760

Same assay, conditions: male, C57BL/6, mouse, iv; plasma, 10 mg/kg i.v., time 0.25 h; read-out: Parent compound concentration following intravenous administration

SMILES	concentration at 0.25 h [ng/mL]
C=C(CC(=O)O[C@@H](CCCCCC)C(F)(F)F)C(=O)OCC(=O)O [Example 182, (S)-2-((2-methylene-4-oxo-4-((1,1,1-trifluorooctan-2-yl)oxy)butanoyl)oxy)acetic acid]	6740
C=C(CC(=O)OC1CCCCCCC1)C(=O)OCc1nnn[nH]1 [Example 134, 1-((1H-tetrazol-5-yl)methyl) 4-cyclooctyl 2-methylenesuccinate]	2890

Same assay, conditions: male, C57BL/6, mouse, iv; plasma, 10 mg/kg i.v., time 0.5 h; read-out: Parent compound concentration following intravenous administration

SMILES	concentration at 0.5 h [ng/mL]
C=C(CC(=O)O[C@@H](CCCCCC)C(F)(F)F)C(=O)OCC(=O)O [Example 182, (S)-2-((2-methylene-4-oxo-4-((1,1,1-trifluorooctan-2-yl)oxy)butanoyl)oxy)acetic acid]	2890
C=C(CC(=O)OC1CCCCCCC1)C(=O)OCc1nnn[nH]1 [Example 134, 1-((1H-tetrazol-5-yl)methyl) 4-cyclooctyl 2-methylenesuccinate]	4300

Same assay, conditions: male, C57BL/6, mouse, iv; plasma, 10 mg/kg i.v., time 1 h; read-out: Parent compound concentration following intravenous administration

SMILES	concentration at 1 h [ng/mL]
C=C(CC(=O)O[C@@H](CCCCCC)C(F)(F)F)C(=O)OCC(=O)O [Example 182, (S)-2-((2-methylene-4-oxo-4-((1,1,1-trifluorooctan-2-yl)oxy)butanoyl)oxy)acetic acid]	642
C=C(CC(=O)OC1CCCCCCC1)C(=O)OCc1nnn[nH]1 [Example 134, 1-((1H-tetrazol-5-yl)methyl) 4-cyclooctyl 2-methylenesuccinate]	74

Same assay, conditions: male, C57BL/6, mouse, iv; plasma, 10 mg/kg i.v., time 2 h; read-out: Parent compound concentration following intravenous administration

SMILES	concentration at 2 h [ng/mL]
C=C(CC(=O)O[C@@H](CCCCCC)C(F)(F)F)C(=O)OCC(=O)O [Example 182, (S)-2-((2-methylene-4-oxo-4-((1,1,1-trifluorooctan-2-yl)oxy)butanoyl)oxy)acetic acid]	88
C=C(CC(=O)OC1CCCCCCC1)C(=O)OCc1nnn[nH]1 [Example 134, 1-((1H-tetrazol-5-yl)methyl) 4-cyclooctyl 2-methylenesuccinate]	12

Same assay, conditions: male, C57BL/6, mouse, iv; plasma, 10 mg/kg i.v., time 4 h; read-out: Parent compound concentration following intravenous administration

SMILES	concentration at 4 h [ng/mL]
C=C(CC(=O)O[C@@H](CCCCCC)C(F)(F)F)C(=O)OCC(=O)O [Example 182, (S)-2-((2-methylene-4-oxo-4-((1,1,1-trifluorooctan-2-yl)oxy)butanoyl)oxy)acetic acid]	20
C=C(CC(=O)OC1CCCCCCC1)C(=O)OCc1nnn[nH]1 [Example 134, 1-((1H-tetrazol-5-yl)methyl) 4-cyclooctyl 2-methylenesuccinate]	11

Same assay, conditions: male, C57BL/6, mouse, iv; plasma, 10 mg/kg i.v., time 6 h; read-out: Parent compound concentration following intravenous administration

SMILES	concentration at 6 h [ng/mL]
C=C(CC(=O)O[C@@H](CCCCCC)C(F)(F)F)C(=O)OCC(=O)O [Example 182, (S)-2-((2-methylene-4-oxo-4-((1,1,1-trifluorooctan-2-yl)oxy)butanoyl)oxy)acetic acid]	6
C=C(CC(=O)OC1CCCCCCC1)C(=O)OCc1nnn[nH]1 [Example 134, 1-((1H-tetrazol-5-yl)methyl) 4-cyclooctyl 2-methylenesuccinate]	1.4

Same assay, conditions: male, C57BL/6, mouse, iv; plasma, 10 mg/kg i.v., time 8 h; read-out: Parent compound concentration following intravenous administration

SMILES	concentration at 8 h [ng/mL]
C=C(CC(=O)O[C@@H](CCCCCC)C(F)(F)F)C(=O)OCC(=O)O [Example 182, (S)-2-((2-methylene-4-oxo-4-((1,1,1-trifluorooctan-2-yl)oxy)butanoyl)oxy)acetic acid]	< 4
C=C(CC(=O)OC1CCCCCCC1)C(=O)OCc1nnn[nH]1 [Example 134, 1-((1H-tetrazol-5-yl)methyl) 4-cyclooctyl 2-methylenesuccinate]	1.7

Test system: not listed separately
Assay: Mouse pharmacokinetic study, oral administration
Format: in vivo
Settings: male, C57BL/6, mouse, plasma, po, 100 mg/kg, plasma, male C57BL/6 mice, oral gavage 100 mg/kg, 0.083 h; read-out: Parent compound concentrations following oral administration, Time 0.083 h
Method in brief: as §1

SMILES	concentration at 0.083 h [ng/mL]
C=C(CC(=O)O[C@@H](CCCCCC)C(F)(F)F)C(=O)OCC(=O)O [Example 182, (S)-2-((2-methylene-4-oxo-4-((1,1,1-trifluorooctan-2-yl)oxy)butanoyl)oxy)acetic acid]	65900
C=C(CC(=O)OC1CCCCCCC1)C(=O)OCc1nnn[nH]1 [Example 134, 1-((1H-tetrazol-5-yl)methyl) 4-cyclooctyl 2-methylenesuccinate]	17500

Same assay, conditions: male, C57BL/6, mouse, plasma, po, 100 mg/kg, plasma, male C57BL/6 mice, oral gavage 100 mg/kg, 0.25 h; read-out: Parent compound concentrations following oral administration, Time 0.25 h

SMILES	concentration at 0.25 h [ng/mL]
C=C(CC(=O)O[C@@H](CCCCCC)C(F)(F)F)C(=O)OCC(=O)O [Example 182, (S)-2-((2-methylene-4-oxo-4-((1,1,1-trifluorooctan-2-yl)oxy)butanoyl)oxy)acetic acid]	46800
C=C(CC(=O)OC1CCCCCCC1)C(=O)OCc1nnn[nH]1 [Example 134, 1-((1H-tetrazol-5-yl)methyl) 4-cyclooctyl 2-methylenesuccinate]	3500

Same assay, conditions: male, C57BL/6, mouse, plasma, po, 100 mg/kg, plasma, male C57BL/6 mice, oral gavage 100 mg/kg, 0.5 h; read-out: Parent compound concentrations following oral administration, Time 0.5 h

SMILES	concentration at 0.5 h [ng/mL]
C=C(CC(=O)O[C@@H](CCCCCC)C(F)(F)F)C(=O)OCC(=O)O [Example 182, (S)-2-((2-methylene-4-oxo-4-((1,1,1-trifluorooctan-2-yl)oxy)butanoyl)oxy)acetic acid]	27900
C=C(CC(=O)OC1CCCCCCC1)C(=O)OCc1nnn[nH]1 [Example 134, 1-((1H-tetrazol-5-yl)methyl) 4-cyclooctyl 2-methylenesuccinate]	7970

Same assay, conditions: male, C57BL/6, mouse, plasma, po, 100 mg/kg, plasma, male C57BL/6 mice, oral gavage 100 mg/kg, 1 h; read-out: Parent compound concentrations following oral administration, Time 1 h

SMILES	concentration at 1 h [ng/mL]
C=C(CC(=O)O[C@@H](CCCCCC)C(F)(F)F)C(=O)OCC(=O)O [Example 182, (S)-2-((2-methylene-4-oxo-4-((1,1,1-trifluorooctan-2-yl)oxy)butanoyl)oxy)acetic acid]	13500
C=C(CC(=O)OC1CCCCCCC1)C(=O)OCc1nnn[nH]1 [Example 134, 1-((1H-tetrazol-5-yl)methyl) 4-cyclooctyl 2-methylenesuccinate]	1980

Same assay, conditions: male, C57BL/6, mouse, plasma, po, 100 mg/kg, plasma, male C57BL/6 mice, oral gavage 100 mg/kg, 2 h; read-out: Parent compound concentrations following oral administration, Time 2 h

SMILES	concentration at 2 h [ng/mL]
C=C(CC(=O)O[C@@H](CCCCCC)C(F)(F)F)C(=O)OCC(=O)O [Example 182, (S)-2-((2-methylene-4-oxo-4-((1,1,1-trifluorooctan-2-yl)oxy)butanoyl)oxy)acetic acid]	5390
C=C(CC(=O)OC1CCCCCCC1)C(=O)OCc1nnn[nH]1 [Example 134, 1-((1H-tetrazol-5-yl)methyl) 4-cyclooctyl 2-methylenesuccinate]	856

Same assay, conditions: male, C57BL/6, mouse, plasma, po, 100 mg/kg, plasma, male C57BL/6 mice, oral gavage 100 mg/kg, 4 h; read-out: Parent compound concentrations following oral administration, Time 4 h

SMILES	concentration at 4 h [ng/mL]
C=C(CC(=O)O[C@@H](CCCCCC)C(F)(F)F)C(=O)OCC(=O)O [Example 182, (S)-2-((2-methylene-4-oxo-4-((1,1,1-trifluorooctan-2-yl)oxy)butanoyl)oxy)acetic acid]	1370
C=C(CC(=O)OC1CCCCCCC1)C(=O)OCc1nnn[nH]1 [Example 134, 1-((1H-tetrazol-5-yl)methyl) 4-cyclooctyl 2-methylenesuccinate]	636

Same assay, conditions: male, C57BL/6, mouse, plasma, po, 100 mg/kg, plasma, male C57BL/6 mice, oral gavage 100 mg/kg, 6 h; read-out: Parent compound concentrations following oral administration, Time 6 h

SMILES	concentration at 6 h [ng/mL]
C=C(CC(=O)O[C@@H](CCCCCC)C(F)(F)F)C(=O)OCC(=O)O [Example 182, (S)-2-((2-methylene-4-oxo-4-((1,1,1-trifluorooctan-2-yl)oxy)butanoyl)oxy)acetic acid]	1280
C=C(CC(=O)OC1CCCCCCC1)C(=O)OCc1nnn[nH]1 [Example 134, 1-((1H-tetrazol-5-yl)methyl) 4-cyclooctyl 2-methylenesuccinate]	94

Same assay, conditions: male, C57BL/6, mouse, plasma, po, 100 mg/kg, plasma, male C57BL/6 mice, oral gavage 100 mg/kg, 8 h; read-out: Parent compound concentrations following oral administration, Time 8 h

SMILES	concentration at 8 h [ng/mL]
C=C(CC(=O)O[C@@H](CCCCCC)C(F)(F)F)C(=O)OCC(=O)O [Example 182, (S)-2-((2-methylene-4-oxo-4-((1,1,1-trifluorooctan-2-yl)oxy)butanoyl)oxy)acetic acid]	417
C=C(CC(=O)OC1CCCCCCC1)C(=O)OCc1nnn[nH]1 [Example 134, 1-((1H-tetrazol-5-yl)methyl) 4-cyclooctyl 2-methylenesuccinate]	62

Same assay, conditions: male, C57BL/6, mouse, plasma, po, 100 mg/kg, plasma, male C57BL/6 mice, oral gavage 100 mg/kg, 24 h; read-out: Parent compound concentrations following oral administration, Time 24 h

SMILES	concentration at 24 h [ng/mL]
C=C(CC(=O)O[C@@H](CCCCCC)C(F)(F)F)C(=O)OCC(=O)O [Example 182, (S)-2-((2-methylene-4-oxo-4-((1,1,1-trifluorooctan-2-yl)oxy)butanoyl)oxy)acetic acid]	5.9
C=C(CC(=O)OC1CCCCCCC1)C(=O)OCc1nnn[nH]1 [Example 134, 1-((1H-tetrazol-5-yl)methyl) 4-cyclooctyl 2-methylenesuccinate]	7

Reference: patent US12390437B2, “Itaconic acid derivatives and uses thereof intreating an inflammatory disease or a disease associated with an undesirable immune response” (Sitryx Therapeutics Limited, priority 2019, dated 2025)
